In patent US9096598B2 (Merck Sharp & Dohme Corp., priority 2011, dated 2015) one finds IC50 data, which are given here for 19 compounds.

As a reminder, the IC50 is the concentration that gives 50% inhibition.

The target of assay [1] is T1, JAK2 (Homo sapiens, UniProt O60674).
T1 construct: recombinant purified GST-tagged catalytic domain for each enzyme; purchased Invitrogen M4290
Nature of the assay: Jak Biochemical HTRF Assay (JAK2). To be noted: recombinant purified GST-tagged catalytic domain, [ATP] 8.5 μM, values given as range classes. The procedure, abridged: (§1)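 GST-tagged recombinant catalytic domain and biotinylated peptide substrate were preincubated with compound for 30 min at room temperature in kinase buffer with 2 mM DTT and 0.05% BSA. ATP then started a 120 min reaction. Phosphopeptide was detected by HTRF (Eu-pY20/streptavidin-Dylight 650, 665/615 nm ratio), and IC50 came from a 4-parameter fit of percent inhibition.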
On the technique in general: In TR-FRET formats the signal depends on donor and acceptor labels being close together.

Assay [2] addresses T2, JAK3 (Homo sapiens, UniProt P52333).
T2 construct: recombinant purified GST-tagged catalytic domain for each enzyme; purchased Invitrogen M4290
Put plainly: Jak Biochemical HTRF Assay (JAK3). To be noted: recombinant purified GST-tagged catalytic domain, [ATP] 2.9 μM, values given as range classes. A digest of the protocol: as §1

T2 sequence (P52333 822-1111 limits assumed): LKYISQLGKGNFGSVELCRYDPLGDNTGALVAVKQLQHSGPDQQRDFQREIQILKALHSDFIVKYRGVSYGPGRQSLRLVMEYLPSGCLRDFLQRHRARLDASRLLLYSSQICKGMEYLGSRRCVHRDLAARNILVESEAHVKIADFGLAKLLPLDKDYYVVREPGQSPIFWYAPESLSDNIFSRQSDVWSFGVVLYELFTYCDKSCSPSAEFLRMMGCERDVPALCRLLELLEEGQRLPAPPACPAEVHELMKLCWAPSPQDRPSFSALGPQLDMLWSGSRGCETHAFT
T1 sequence (O60674 849-1124 limits assumed): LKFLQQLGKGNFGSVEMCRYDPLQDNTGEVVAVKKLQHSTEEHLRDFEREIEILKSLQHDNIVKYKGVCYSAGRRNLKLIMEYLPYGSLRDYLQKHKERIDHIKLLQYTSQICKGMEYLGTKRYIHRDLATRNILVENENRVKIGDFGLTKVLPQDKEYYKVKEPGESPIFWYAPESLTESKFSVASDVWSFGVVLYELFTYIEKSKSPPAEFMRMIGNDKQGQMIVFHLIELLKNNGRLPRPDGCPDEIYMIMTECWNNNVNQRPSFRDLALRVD

On to `CC(C)[C@H](Nc1cncc(-c2c[nH]c3ncc(OCc4cccnc4)cc23)c1)C(=O)NCC(F)(F)F` [Example 2-11, N~2~-{5-[5-(pyridin-3-ylmethoxy)-1H-pyrrolo[2,3-b]pyridin-3-yl]pyridin-3-yl}-N-(2,2,2-trifluoroethyl)valinamide], for which the IC50 was 10 to 500 nM in assay [1] and ≤ 10 nM in assay [2].

Turning to `CC(C)NC(=O)c1cnc2[nH]cc(-c3cncc(N[C@@H](C(=O)NCC(F)(F)F)C(C)C)c3)c2c1` [Example 3-2, N-(1-methylethyl)-3-[5-({(1R)-2-methyl-1-[(2,2,2-trifluoroethyl)carbamoyl]propyl}amino)pyridin-3-yl]-1H-pyrrolo[2,3-b]pyridine-5-carboxamide], the IC50 in assay [1] and in assay [2] was ≤ 10 nM in each case.

Consider `NC(=O)c1cnc2[nH]cc(-c3nncc(N[C@@H]4CCCC[C@@H]4C(=O)NCC(F)(F)F)n3)c2c1` [Example 1-23, 3-[5-({(1R,2S)-2-[(2,2,2-trifluoroethyl)carbamoyl]cyclo-hexyl}amino)-1,2,4-triazin-3-yl]-1H-pyrrolo[2,3-b]pyridine-5-carboxamide], for which the IC50 in assay [1] and in assay [2] was 10 to 500 nM throughout.

Consider `CC(C)[C@@H](Nc1cncc(-c2c[nH]c3ncc(C(=O)NCc4ccn[nH]4)cc23)c1)C(=O)NCC(F)(F)F` [Example 3-10, 3-[5-({(1R)-2-methyl-1-[(2,2,2-trifluoroethyl)carbamoyl]propyl}amino)pyridin-3-yl]-N-(1H-pyrazol-5-ylmethyl)-1H-pyrrolo[2,3-b]pyridine-5-carboxamide], for which the IC50 in assay [1] was 10 to 500 nM; in assay [2], ≤ 10 nM.

For the compound `CC(C)C(Nc1cncc(-c2c[nH]c3ncc(S(=O)(=O)N(C)C)cc23)c1)C(=O)NCC(F)(F)F` (centres unmarked) [Example 4-2, 2-(5-(5-(N,N-dimethylsulfamoyl)-1H-pyrrolo[2,3-b]pyridin-3-yl)pyridin-3-ylamino)-3-methyl-N-(2,2,2-trifluoroethyl)butanamide], the IC50 in assay [1] is > 500 nM; in assay [2], 10 to 500 nM.

As to `CC(C)C(Nc1cncc(-c2c[nH]c3ncc(O)cc23)c1)C(=O)NCC(F)(F)F` (centres unmarked) [Example 2-1, 2-{[5-(5-hydroxy-1H-pyrrolo[2,3-b]pyridin-3-yl)pyridin-3-yl]amino}-3-methyl-N-(2,2,2-trifluoroethyl)butanamide], the IC50 was 10 to 500 nM in assay [1] and ≤ 10 nM in assay [2].

For `CC(C)[C@H](Nc1cncc(-c2c[nH]c3ncc(OCCN4CCOCC4)cc23)c1)C(=O)NCC(F)(F)F` [Example 2-15, N~2~-{5-[5-(2-morpholin-4-ylethoxy)-1H-pyrrolo[2,3-b]pyridin-3-yl]pyridin-3-yl}-N-(2,2,2-trifluoroethyl)valinamide], the figures for the half-maximal inhibitory concentration (IC50) in assay [1] and in assay [2] were 10 to 500 nM and ≤ 10 nM, respectively.

`CC(C)C(Nc1cncc(-c2c[nH]c3ncc(S(N)(=O)=O)cc23)c1)C(=O)NCC(F)(F)F` (centres unmarked) [Example 4-1, 3-Methyl-2-(5-(5-sulfamoyl-1H-pyrrolo[2,3-b]pyridin-3-yl)pyridin-3-ylamino)-N-(2,2,2-trifluoroethyl)butanamide]: the IC50 in assay [1] was 10 to 500 nM; in assay [2] it was ≤ 10 nM.

In the case of `CC(C)OC(=O)Nc1cnc2[nH]cc(-c3cncc(NC(C(=O)NCC(F)(F)F)C(C)C)c3)c2c1` (centres unmarked) [Example 7-3, 1-methylethyl {3-[5-({2-methyl-1-[(2,2,2-trifluoroethyl)carbamoyl]propyl}amino)pyridin-3-yl]-1H-pyrrolo[2,3-b]pyridin-5-yl}carbamate], the 50% inhibitory concentration (IC50) in assay [1] and in assay [2] was 10 to 500 nM throughout.

As for `C[C@@H](Nc1cncc(-c2c[nH]c3ncc(S(C)(=O)=O)cc23)c1)C(=O)NCC(F)(F)F` [Example 1-34, N~2~-{5-[5-(methylsulfonyl)-1H-pyrrolo[2,3-b]pyridin-3-yl]pyridin-3-yl}-N-(2,2,2-trifluoroethyl)-D-alaninamide], the IC50 in assay [1] is > 500 nM; in assay [2] it was ≤ 10 nM.

As for `CC(C)[C@@H](Nc1cncc(-c2c[nH]c3ncc(-c4cnn(C)c4)cc23)c1)C(=O)NCC(F)(F)F` [Example 8-3, N^2-{5-[5-(1-methyl-1H-pyrazol-4-yl)-1H-pyrrolo[2,3-b]pyridin-3-yl]pyridin-3-yl}-N-(2,2,2-trifluoroethyl)-D-valinamide], the half-inhibitory concentration (IC50) in assay [1] and in assay [2] was ≤ 10 nM in each case.

`CC(C)[C@@H](Nc1cncc(-c2c[nH]c3ncc(COCCN4CCOCC4)cc23)c1)C(=O)NCC(F)(F)F` [Example 9-4, N~2~-(5-{5-[(2-morpholin-4-ylethoxy)methyl]-1H-pyrrolo[2,3-b]pyridin-3-yl}pyridin-3-yl)-N-(2,2,2-trifluoroethyl)-D-valinamide]: the IC50 in assay [1] is 10 to 500 nM; in assay [2], ≤ 10 nM.

As for `CC(C)[C@H](Nc1cncc(-c2c[nH]c3ncc(OCc4ccccc4)cc23)c1)C(=O)NCC(F)(F)F` [Example 2-4, N~2~-{5-[5-(benzyloxy)-1H-pyrrolo[2,3-b]pyridin-3-yl]pyridin-3-yl}-N-(2,2,2-trifluoroethyl)valinamide], the half-maximal inhibitory concentration (IC50) is 10 to 500 nM in assay [1] and ≤ 10 nM in assay [2].

`CNC(=O)c1cnc2[nH]cc(-c3cncc(N[C@@H](C(=O)NCC(F)(F)F)C(C)C)c3)c2c1` [Example 3-8, N-methyl-3-[5-({(1R)-2-methyl-1-[(2,2,2-trifluoroethyl)carbamoyl]propyl}amino)pyridin-3-yl]-1H-pyrrolo[2,3-b]pyridine-5-carboxamide]: the IC50 in assay [1] was 10 to 500 nM; in assay [2] it was ≤ 10 nM.

For the compound `COCc1cnc2[nH]cc(-c3cncc(N[C@@H](C(=O)NCC(F)(F)F)C(C)C)c3)c2c1` [Example 9-9, N~2~-{5-[5-(methoxymethyl)-1H-pyrrolo[2,3-b]pyridin-3-yl]pyridin-3-yl}-N-(2,2,2-trifluoroethyl)-D-valinamide], the IC50 in assay [1] is 10 to 500 nM; in assay [2] it was ≤ 10 nM.

For `CCC(=O)NCc1cnc2[nH]cc(-c3cncc(N[C@H](C(=O)NCC(F)(F)F)C(C)C)c3)c2c1` [Example 10-2, N~2~-(5-{5-[(propanoylamino)methyl]-1H-pyrrolo[2,3-b]pyridin-3-yl}pyridin-3-yl)-N-(2,2,2-trifluoroethyl)valinamide], the IC50 in assay [1] was > 500 nM; in assay [2], 10 to 500 nM.

Turning to `CC(C)C(Nc1cncc(-c2c[nH]c3ncc(C(N)=O)cc23)c1)C(=O)NCC(F)(F)F` (centres unmarked) [Example 1-42, 3-[5-({2-methyl-1-[(2,2,2-trifluoroethyl)carbamoyl]propyl}amino)pridin-3-yl]-1H-pyrrolo[2,3-b]pyridine-5-carboxamide], the figures for the IC50 in assay [1] and in assay [2] were 10 to 500 nM and ≤ 10 nM, respectively.

Regarding `CC(C)[C@H](Nc1cncc(-c2c[nH]c3ncc(Cl)cc23)c1)C(=O)NCC(F)(F)F` [Example 1-52, N-18 2~-[5-(5-chloro-1H-pyrrolo[2,3-b]pyridin-3-yl)pyridin-3-yl]-N-(2,2,2-trifluoroethyl)-L-valinamide], the IC50 in assay [1] is 10 to 500 nM; in assay [2], ≤ 10 nM.

As to `CC(C)(Nc1cncc(-c2c[nH]c3ncc(Cl)cc23)c1)C(=O)NCC(F)(F)F` [Example 1-27, N~2~-[5-(5-chloro-1H-pyrrolo[2,3-b]pyridin-3-yl)pyridin-3-yl]-2-methyl-N-(2,2,2-trifluoroethyl)alaninamide], the IC50 was 10 to 500 nM in assay [1] and ≤ 10 nM in assay [2].
